Laboratory results taken from patent US20250049036A1 (priority 2021, published 2025).

Columns and labels:
[1] = tested on: Pyricularia oryzae; assay: microbe, parasite or virus in culture; type: cell-based; details: 168 h, read-out: control compared to the untreated check
[2] = tested on: Alternaria solani; assay: Alternaria solani (early blight of tomato/potato) mycelial radial growth on potato dextrose agar; type: cell-based; details: 168 h, 25° C., seven days, read-out: control compared to the untreated check
Description: The compounds were dissolved in 0.3% dimethyl sulfoxide and then added to potato dextrose agar medium just prior to dispensing it into petri dishes. 5 mL medium, with the compound in the desired concentration, was dispensed into 60 mm sterile petri-plates. After solidification, each plate was seeded with a 5 mm size mycelial disc taken from the periphery of an actively growing virulent culture plate. The plates were incubated in growth chambers at 25° C. temperature and 60% relative humidity for seven days and the radial growth was measured and compared to the one of the untreated control.

[3] = tested on: Colletotrichum capsici; assay: Colletotrichum capsici (anthracnose) mycelial radial growth on potato dextrose agar; type: cell-based; details: Colletotrichum truncatum, 168 h, 25° C., seven days, read-out: control compared to the untreated check
Method in brief: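 Compounds in 0.3% DMSO were mixed into potato dextrose agar, and each plate was seeded with a 5 mm mycelial disc from an actively growing culture. Plates were incubated at 25° C and 60% relative humidity for seven days. Radial growth was compared with untreated control.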

[4] = tested on: Botrytis cinerea; assay: Botrytis cinerea test on tomato, preventive, greenhouse; type: in vivo; details: preventive spray on bean/chili plants (heading: tomato), inoculated one day after treatment, read-out: control (efficacy, disease severity) compared to the untreated check
[5] = tested on: Phakopsora pachyrhizi; assay: Phakopsora pachyrhizi test on soybean, preventive, greenhouse; type: in vivo; details: preventive spray on soybean, inoculated one day after treatment, read-out: control (efficacy, disease severity) compared to the untreated check
Method in brief: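 Greenhouse-grown young soybean plants were sprayed with compound (2% DMSO/acetone, emulsifier in water) at the stated rate. One day later they were inoculated with 2×10^5 P. pachyrhizi inoculum and held at 22-24 °C, 80-90% relative humidity for disease development.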

[6] = tested on: Phytophthora infestans; assay: microbe, parasite or virus in culture; type: cell-based; details: 168 h, read-out: control compared to the untreated check
[7] = tested on: Parastagonospora nodorum; assay: Parastagonospora nodorum (PARANO) spore growth inhibition in liquid medium, 96-well microtiter plate, OD 600; type: cell-based; details: spore suspension in PDB liquid medium, 18° C., 5-6 days, OD at 600, read-out: control compared to the untreated check
Method in brief: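 Read-out is percent growth inhibition from OD at 600 after 5-6 days at 18° C. Compounds, dissolved in DMSO, were diluted in potato dextrose broth and combined in equal volume with a 10^5 spores/ml suspension of PARANO.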

[8] = tested on: Phytophthora infestans; assay: whole plant or invertebrate; type: in vivo, Phytophthora infestans on tomato; details: in Solanum lycopersicum, read-out: control (efficacy, disease severity) compared to the untreated check
[9] = tested on: Botrytis cinerea; assay: Botrytis cinerea liq. (BOTRCI) spore growth inhibition in liquid medium, 96-well microtiter plate, OD 405 nm; type: cell-based; details: spore suspension in YBA liquid medium, 22° C., 5-6 days, OD at 405 nm, read-out: control compared to the untreated check
Method in brief: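 Spore suspension of B. cinerea (10^4 spores/ml) in YBA liquid medium mixed 1:1 with compound diluted from DMSO. Incubated at 22° C. for 5-6 days. Growth read as OD 405 nm; percent inhibition derived from treatment, untreated-control and blank readings.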

[10] = tested on: Alternaria solani; assay: Alternaria solani test in tomato, preventive, greenhouse; type: in vivo; details: preventive spray on tomato, inoculated one day after treatment, read-out: control (efficacy, disease severity) compared to the untreated check
Description: The respective compound was dissolved in 2% dimethyl sulfoxide/acetone and then mixed with water containing an emulsifier to the calibrated spray volume of 30 mL. Each spray solution was poured into a spray bottle for further application.
To test the preventive activity of a compound, healthy young tomato plants, raised in the greenhouse, were sprayed with the active compound preparation at the stated application rate inside the spray cabinets using hollow cone nozzles. One day after treatment, the plants were inoculated with a spore suspension containing 0.24×10^6 Alternaria solani inoculum. The inoculated plants were then kept in a greenhouse chamber at 22-24° C. temperature and 90-95% relative humidity for disease expression.
A visual assessment of the compound's performance was carried out by rating the disease severity (0 100% scale) on treated plants 3, 7, 10 and 15 days after application. Efficacy (% control) of the compound was calculated by comparing the disease rating in the treatment with the one of the untreated control. The treated plants were also assessed for plant damage by recording symptoms like necrosis, chlorosis and stunting.

[11] = tested on: Venturia Inequalis; assay: Venturia inequalis (VENTIN) spore growth inhibition in liquid medium, 96-well microtiter plate, OD 600; type: cell-based; details: spore suspension in PDB liquid medium, 18° C., 15-18 days, OD at 600, read-out: control compared to the untreated check
Description: Potato dextrose (PDB) liquid medium containing a VENTIN (10^5 spores/ml) spore suspension was prepared. For the inhibition assay, each test compound was solved in dimethyl sulfoxide. 100 μl of the test compound in media-solution was added to a 96-well microtiter plate, consequently, the same volume (100 μl) of spore suspension was added to the well making the final test concentrations and the treated plate was incubated at 18° C. for 15-18 days. The growth inhibition was evaluated by measuring the OD at 600. Percent inhibition was calculated with the below formula: […]

[12] = tested on: Botrytis cinerea; assay: Botrytis cinerea (gray mold) mycelial radial growth on potato dextrose agar; type: cell-based; details: 168 h, 22° C., seven days, read-out: control compared to the untreated check
Method in brief: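 Compounds in 0.3% DMSO were mixed into potato dextrose agar, and plates were seeded with 5 mm mycelial discs from actively growing virulent culture. After seven days at 22 °C and 90% relative humidity, radial growth was measured relative to untreated control.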

Cn1ccc2cc(C(=O)NC(C)(C)Cc3ccccc3)cnc21 [Compound 1, 1-methyl-N-(2-methyl-1-phenylpropan-2-yl)-1H-pyrrolo[2,3-b]pyridine-5-carboxamide]
≥ 70%: inhibition of growth at 300 ppm [1] | inhibition of growth at 300 ppm [2] | inhibition of growth at 300 ppm [3] | pest or weed control at 500 ppm [4] | pest or weed control at 500 ppm [5]

Cn1ccc2cc(C(=O)NC3(Cc4ccccc4)CCCC3)cnc21 [Compound 10, N-(1-benzylcyclopentyl)-1-methyl-1H-pyrrolo[2,3-b]pyridine-5-carboxamide]
≥ 70%: inhibition of growth at 300 ppm [2] | inhibition of growth at 300 ppm [3] | inhibition of growth at 300 ppm [6] | inhibition of growth at 300 ppm [7] | pest or weed control at 500 ppm [8] | pest or weed control at 500 ppm [5]

Cn1ccc2cc(C(=O)NC(C)(C)Cc3ccccc3F)cnc21 [Compound 13, N-(1-(2-fluorophenyl)-2-methylpropan-2-yl)-1-methyl-1H-pyrrolo[2,3-b]pyridine-5-carboxamide]
≥ 70%: inhibition of growth at 300 ppm [1] | inhibition of growth at 300 ppm [2] | inhibition of growth at 300 ppm [3] | inhibition of growth at 300 ppm [6] | inhibition of growth at 300 ppm [7] | inhibition of growth at 300 ppm [9]

Cn1ccc2cc(C(=O)NC(C)(C)Cc3cccc(C(F)(F)F)c3)cnc21 [Compound 14, 1-methyl-N-(2-methyl-1-(3-(trifluoromethyl)phenyl)propan-2-yl)-1H-pyrrolo[2,3-b]pyridine-5-carboxamide]
≥ 70%: inhibition of growth at 300 ppm [2] | inhibition of growth at 300 ppm [9]

Cn1ccc2cc(C(=O)NC(C)(C)Cc3cc(F)cc(F)c3)cnc21 [Compound 15, N-(1-(3,5-difluorophenyl)-2-methylpropan-2-yl)-1-methyl-1H-pyrrolo[2,3-b]pyridine-5-carboxamide]
≥ 70%: pest or weed control at 500 ppm [10]

Cn1ccc2cc(C(=O)NC(C)(C)Cc3cccc(F)c3)cnc21 [Compound 21, N-(1-(3-fluorophenyl)-2-methylpropan-2-yl)-1-methyl-1H-pyrrolo[2,3-b]pyridine-5-carboxamide]
≥ 70%: inhibition of growth at 300 ppm [1] | inhibition of growth at 300 ppm [3] | pest or weed control at 500 ppm [10] | pest or weed control at 500 ppm [5]

Cn1ccc2cc(C(=O)NC(C)(C)Cc3ccccc3Br)cnc21 [Compound 26]
≥ 70%: inhibition of growth at 300 ppm [7] | pest or weed control at 500 ppm [10] | pest or weed control at 500 ppm [5]

CC(C)CC(C)(Cc1ccccc1)NC(=O)c1cnc2[nH]ccc2c1 (stereo not shown) [Compound 28, N-(2,4-dimethyl-1-phenylpentan-2-yl)-1H-pyrrolo[2,3-b] pyridine-5-carboxamide]
≥ 70%: inhibition of growth at 300 ppm [2] | inhibition of growth at 300 ppm [3] | inhibition of growth at 300 ppm [6] | inhibition of growth at 300 ppm [7] | pest or weed control at 500 ppm [5]

Cn1ccc2cc(C(=O)NC(C)(C)Cc3ccc(Cl)cc3F)cnc21 [Compound 47, N-(1-(4-chloro-2-fluorophenyl)-2-methylpropan-2-yl)-1-methyl-1H-pyrrolo[2,3-b]pyridine-5-carboxamide]
≥ 70%: inhibition of growth at 300 ppm [1] | inhibition of growth at 300 ppm [2] | inhibition of growth at 300 ppm [7] | inhibition of growth at 300 ppm [11] | pest or weed control at 500 ppm [8] | pest or weed control at 500 ppm [5]

CC(C)CC(C)(Cc1ccccc1)NC(=O)c1cnc2c(c1)c(Br)cn2C (stereo not shown) [Compound 51, 3-bromo-N-(2,4-dimethyl-1-phenylpentan-2-yl)-1-methyl-1H-pyrrolo[2,3-b]pyridine-5-carboxamide]
≥ 70%: inhibition of growth at 300 ppm [1] | pest or weed control at 500 ppm [10] | pest or weed control at 500 ppm [5]

Cn1cc(Cl)c2cc(C(=O)NC(C)(C)Cc3ccccc3F)cnc21 [Compound 59, 3-chloro-N-(1-(2-fluorophenyl)-2-methylpropan-2-yl)-1-methyl-1H-pyrrolo[2,3-b]pyridine-5-carboxamide]
≥ 70%: inhibition of growth at 300 ppm [1] | pest or weed control at 500 ppm [10] | pest or weed control at 500 ppm [5]

Cn1cc(C2CC2)c2cc(C(=O)NC(C)(C)Cc3ccccc3Cl)cnc21 [Compound 85, N-(1-(2-chlorophenyl)-2-methylpropan-2-yl)-3-cyclopropyl-1-methyl-1H-pyrrolo[2,3-b]pyridine-5-carboxamide]
≥ 70%: inhibition of growth at 300 ppm [1] | inhibition of growth at 300 ppm [2] | inhibition of growth at 300 ppm [7] | pest or weed control at 500 ppm [8] | pest or weed control at 500 ppm [5]

C=C(C)CC(C)(COc1ccc(F)cc1)NC(=O)c1cc2cc[nH]c2nc1C (stereo not shown) [Compound 128, N-(1-(4-fluorophenoxy)-2,4-dimethylpent-4-en-2-yl)-6-methyl-1H-pyrrolo[2,3-b]pyridine-5-carboxamide]
≥ 70%: pest or weed control at 500 ppm [4] | pest or weed control at 500 ppm [10]

CCC(O)(CC)C(NC(=O)c1cnc2c(ccn2C)c1)c1ccc(F)cc1 (stereo not shown) [Compound 131, N-(2-ethyl-1-(4-fluorophenyl)-2-hydroxybutyl)-1-methyl-1H-pyrrolo[2,3-b]pyridine-5-carboxamide]
≥ 70%: inhibition of growth at 300 ppm [1] | pest or weed control at 500 ppm [10] | pest or weed control at 500 ppm [5]

C=C(C)CC(C)(Cc1ccccc1F)NC(=O)c1cnc2cc[nH]c2c1 (stereo not shown) [Compound 144, N-(1-(2-fluorophenyl)-2,4-dimethylpent-4-en-2-yl)-1H-pyrrolo[3,2-b] pyridine-6-carboxamide]
≥ 70%: inhibition of growth at 300 ppm [12] | inhibition of growth at 300 ppm [2] | inhibition of growth at 300 ppm [3] | inhibition of growth at 300 ppm [6] | inhibition of growth at 300 ppm [7] | inhibition of growth at 300 ppm [11] | inhibition of growth at 300 ppm [9] | pest or weed control at 500 ppm [4] | pest or weed control at 500 ppm [8] | pest or weed control at 500 ppm [5]
